Reference: patent US9695200B2, “Heterocyclic ITK inhibitors for treating inflammation and cancer” (Confluence Life Sciences, Inc., priority 2015, dated 2017)

What was measured:
[1] = tested on: phospho-PLCγ1 in Jurkat cells; test: ITK target modulation PLC-γ assay (phospho-PLCγ1, αCD3-stimulated Jurkat cells); type: cell-based, human; conditions: Homo sapiens, 1 hour compound incubation, αCD3 Dynabeads stimulation 8 minutes, MSD phospho-PLCγ1, read-out: PLC-γ Inhibition IC50
Procedure: Jurkat cells, an immortalized human T-lymphocyte cell line, were maintained in RPMI media, 10% FBS, 1% pen/strep/glutamine (growth media). Cells were plated in growth media plus 50 μM β-mercaptoethanol at 400,000 cells per well of a 96 well plate.
Compounds were serially diluted into DMSO, and then into media to concentrations 10× that of the final assay concentration. Compounds were then added to the cells with the final assay DMSO concentration being 0.1%. Cells were incubated for 1 hour at 37° C.
Following compound incubation, αCD3 Dynabeads were added at 1 bead/cell to each assay well and incubated at 37° C. for 7 minutes. Unstimulated control wells received media only. The plate was then placed on a 96-well magnetic plate for an additional 60 seconds (total assay stimulation time equals 8 minutes). The plate was then dumped and gently patted dry on a paper towel. 50 μl of complete Meso Scale Discovery (MSD) Lysis buffer was then added to each well. Samples were assayed for phospho-PLCγ1 using Meso Scale Discovery technology.
The assay stimulation time has been optimized for detection of Itk kinase-mediated phosphorylation of PLCγ1. The timing and detection reagents for this assay could be adjusted to capture phosphorylation events upstream (e.g., phospho-ZAP70) or downstream of the Itk/PLCγ1 node, provided the appropriate phospho-specific antibodies are available for building of an MSD assay.

ITK = ITK (Homo sapiens (Human), UniProt Q08881); test: ITK inhibitor binding potency (LanthaScreen competitive binding assay); conditions: TR-FRET tracer-236 displacement, 10 nM ITK; pre-incubation condition not given; read-out: ITK Inhibition IC50
Sequence of ITK (Q08881 whole entry): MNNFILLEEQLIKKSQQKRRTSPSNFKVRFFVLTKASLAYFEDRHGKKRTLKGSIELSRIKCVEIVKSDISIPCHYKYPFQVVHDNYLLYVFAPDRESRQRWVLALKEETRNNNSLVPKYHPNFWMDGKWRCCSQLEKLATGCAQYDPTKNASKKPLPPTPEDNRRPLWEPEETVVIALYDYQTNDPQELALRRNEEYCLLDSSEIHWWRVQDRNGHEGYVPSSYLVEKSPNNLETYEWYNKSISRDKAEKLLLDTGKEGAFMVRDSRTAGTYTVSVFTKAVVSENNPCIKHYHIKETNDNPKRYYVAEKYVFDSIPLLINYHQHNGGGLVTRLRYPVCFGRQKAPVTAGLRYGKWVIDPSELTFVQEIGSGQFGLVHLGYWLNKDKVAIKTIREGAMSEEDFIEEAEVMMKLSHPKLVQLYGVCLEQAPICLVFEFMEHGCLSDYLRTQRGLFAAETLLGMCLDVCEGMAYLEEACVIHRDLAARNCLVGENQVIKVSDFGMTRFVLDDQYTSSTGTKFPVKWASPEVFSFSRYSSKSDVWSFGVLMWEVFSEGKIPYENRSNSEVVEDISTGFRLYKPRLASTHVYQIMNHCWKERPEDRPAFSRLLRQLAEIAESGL
Text: The ability of candidate compounds to interact with ITK is quantitated by a competitive binding assay using the LanthaScreen technology developed by Life Technologies. This assay is based on the binding of a proprietary, Alexa Fluor® 647-labeled, ATP-competitive kinase inhibitor (kinase tracer-236) to the ITK expression construct in the presence of a Europium-conjugated antibody, resulting in a FRET (fluorescence resonance energy transfer) signal. Displacement of the kinase tracer by compound results in a lower emission ratio upon excitation of the Europium chelate. Candidate compounds are designed as potential irreversible inhibitors of ITK, capable of ligating to an active site cysteine residue resulting in time dependent covalent binding. The time dependent nature of irreversible inhibition is investigated by performing the binding assay with and without a pre-incubation of compound and ITK. […] The inhibitory potency of candidate compounds is measured in 20 mM HEPES pH 7.5, 10 mM MgCl2, 0.01% BSA, 0.0005% Tween-20, and 2% DMSO in the presence of 10 nM ITK, 2 nM Eu-anti-GST antibody, and 50 nM kinase tracer-236 using a 384-well plate format. Background signal is defined in the absence of ITK and uninhibited signal is defined in the presence of vehicle (2% DMSO) alone. Compounds were evaluated in an 11 point dose-response ranging from 20 uM to 0.34 nM. The binding assays are performed under two preincubation conditions to evaluate time dependence of inhibition. For the pre-incubation assay, ITK and Eu-anti-GST antibody are pre-incubated with compound or vehicle for two hours prior to the addition of kinase tracer. The non-preincubated assay is run under conditions where ITK and Eu-anti-GST antibody are added to a mixture of compound and kinase tracer. IC50 values of compounds are determined using a 4 parameter logistical fit of emission ratio as a function of the concentration of compound.

IC50 [1] [µM] | IC50 (ITK) [µM] | SMILES
< 1 | ≤ 1 | C=CC(=O)Nc1cccc(-c2cnc3[nH]cc(-c4ccnc(OC)c4)c3c2)c1 [Example 6, N-(3-(3-(2-Methoxypyridin-4-yl)-1H-pyrrolo[2,3-b]pyridin-5-yl)phenyl)acrylamide]
– | > 1 | C=CC(=O)Nc1cccc(-c2cnc3[nH]cc(-c4ccncc4)c3c2)c1 [Example 7, N-(3-(3-(pyridin-4-yl)-1H-pyrrolo[2,3-b]pyridin-5-yl)phenyl)acrylamide]
> 5 | ≤ 1 | COc1cc(-c2c[nH]c3ncc(-c4cccc(/C=C(\C#N)C(N)=O)c4)cc23)ccn1 [Example 9, (E)-2-Cyano-3-(3-(3-(2-methoxypyridin-4-yl)-1H-pyrrolo[2,3-b]pyridin-5-yl)phenyl)acrylamide]
< 1 | ≤ 1 | C=CC(=O)Nc1cc(-c2cnc3[nH]cc(-c4ccnc(OC)c4)c3c2)cc(C(F)(F)F)c1 [Example 11, N-(3-(3-(2-Methoxypyridin-4-yl)-1H-pyrrolo[2,3-b]pyridin-5-yl)-5-(trifluoromethyl)phenyl)acrylamide]
1 to 5 | ≤ 1 | C=CC(=O)N(C)c1cccc(-c2cnc3[nH]cc(-c4ccnc(OC)c4)c3c2)c1 [Example 21, N-(3-(3-(2-methoxypyridin-4-yl)-1H-pyrrolo[2,3-b]pyridin-5-yl)phenyl)-N-methylacrylamide]
– | ≤ 1 | C=CC(=O)Nc1cc(-c2cnc3[nH]cc(-c4ccnc(OC)c4)c3c2)cc(OC)n1 [Example 40, N-(6-methoxy-4-(3-(2-methoxypyridin-4-yl)-1H-pyrrolo[2,3-b]pyridin-5-yl)pyridin-2-yl)acrylamide]
> 5 | – | C=CC(=O)Nc1cccc(-c2cnc3[nH]cc(-c4cc(OC)ncc4C)c3c2)c1 [Example 79, N-(3-(3-(2-methoxy-5-methylpyridin-4-yl)-1H-pyrrolo[2,3-b]pyridin-5-yl)phenyl)acryl-amide]
< 1 | – | C=CC(=O)Nc1cc(-c2cnc3[nH]cc(-c4ccnc(OC)c4)c3c2)cc(-c2cnn(C)c2)c1 [Example 80, N-(3-(3-(2-methoxypyridin-4-yl)-1H-pyrrolo[2,3-b]pyridin-5-yl)-5-(1-methyl-1H-pyrazol-4-yl)phenyl)acryl-amide]
1 to 5 | – | C=CC(=O)Nc1cc(-c2cnc3[nH]cc(-c4ccnc(OC)c4)c3c2)cc(C(O)(CC)CC)c1 [Example 83, N-(3-(3-hydroxypentan-3-yl)-5-(3-(2-methoxypyridin-4-yl)-1H-pyrrolo[2,3-b]pyridin-5-yl)phenyl)acryl-amide]
< 1 | – | C=CC(=O)Nc1cccc(-c2cnc3[nH]cc(-c4ccnc(NC)n4)c3c2)c1 [Example 91, N-(3-(3-(2-(methylamino)pyrimidin-4-yl)-1H-pyrrolo[2,3-b]pyridin-5-yl)phenyl)acryl-amide]
1 to 5 | – | C=CC(=O)Nc1cccc(-c2cnc3[nH]cc(-c4cccc(C#N)c4)c3c2)c1 [Example 92, N-(3-(3-(3-cyanophenyl)-1H-pyrrolo[2,3-b]pyridin-5-yl)phenyl)acryl-amide]

The next lines start with the compound.

SMILES | IC50 [1] [µM] | IC50 (ITK) [µM]
C=CC(=O)NC1CN(c2cnc3[nH]cc(-c4ccccc4)c3c2)C1 [Example 1, N-(1-(3-Phenyl-1H-pyrrolo[2,3-b]pyridin-5-yl)azetidin-3-yl)acrylamide] | > 5 | ≤ 1
C=CC(=O)NC1CN(c2cnc3[nH]cc(-c4ccnc(OC)c4)c3c2)C1 [Example 2, N-(1-(3-(2-Methoxypyridin-4-yl)-1H-pyrrolo[2,3-b]pyridin-5-yl)azetidin-3-yl)acrylamide] | – | ≤ 1
C=CC(=O)NC1CN(c2cnc3[nH]cc(-c4ccc(OC)nc4)c3c2)C1 [Example 3, N-(1-(3-(6-Methoxypyridin-3-yl)-1H-pyrrolo[2,3-b]pyridin-5-yl)azetidin-3-yl)acrylamide] | – | ≤ 1
C=CC(=O)NC1CN(c2cnc3[nH]cc(-c4ccnc(C)c4)c3c2)C1 [Example 4, N-(1-(3-(2-Methylpyridin-4-yl)-1H-pyrrolo[2,3-b]pyridin-5-yl)azetidin-3-yl)acrylamide] | > 5 | ≤ 1
N#C/C(=C\c1cccc(-c2cnc3[nH]cc(-c4ccncc4)c3c2)c1)C(N)=O [Example 8, (E)-2-Cyano-3-(3-(3-(pyridin-4-yl)-1H-pyrrolo[2,3-b]pyridin-5-yl)phenyl)acrylamide] | 1 to 5 | ≤ 1
C=CC(=O)NC1CN(c2cnc3[nH]cc(-c4ccncc4)c3c2)C1 [Example 10, N-(1-(3-(Pyridin-4-yl)-1H-pyrrolo[2,3-b]pyridin-5-yl)azetidin-3-yl)acrylamide] | > 5 | ≤ 1
C=CC(=O)N[C@H]1CCN(c2cnc3[nH]cc(-c4ccncc4)c3c2)C1 [Example 14, (S)-N-(1-(3-(pyridin-4-yl)-1H-pyrrolo[2,3-b]pyridin-5-yl)pyrrolidin-3-yl)acrylamide] | > 5 | ≤ 1
C=CC(=O)N[C@H]1CCCN(c2cnc3[nH]cc(-c4ccncc4)c3c2)C1 [Example 15, (S)-N-(1-(3-(pyridin-4-yl)-1H-pyrrolo[2,3-b]pyridin-5-yl)piperidin-3-yl)acrylamide] | > 5 | ≤ 1
C=CC(=O)Nc1cncc(-c2cnc3[nH]cc(-c4ccncc4)c3c2)c1 [Example 16, N-(5-(3-(pyridin-4-yl)-1H-pyrrolo[2,3-b]pyridin-5-yl)pyridin-3-yl)acrylamide] | – | ≤ 1
C=CC(=O)Nc1cncc(-c2cnc3[nH]cc(-c4ccc(=O)n(C)c4)c3c2)c1 [Example 17, N-(5-(3-(1-methyl-6-oxo-1,6-dihydropyridin-3-yl)-1H-pyrrolo[2,3-b]pyridin-5-yl)pyridin-3-yl)acrylamide] | > 5 | ≤ 1
N#CN[C@H]1CCN(c2cnc3[nH]cc(-c4ccncc4)c3c2)C1 [Example 18, (S)-N-(1-(3-(pyridin-4-yl)-1H-pyrrolo[2,3-b]pyridin-5-yl)pyrrolidin-3-yl)cyanamide] | – | ≤ 1
C=CC(=O)Nc1cncc(-c2cnc3[nH]cc(-c4ccnc(F)c4)c3c2)c1 [Example 27, N-(5-(3-(2-fluoropyridin-4-yl)-1H-pyrrolo[2,3-b]pyridin-5-yl)pyridin-3-yl)acrylamide] | – | ≤ 1
C=CC(=O)Nc1cccc(-c2cnc3[nH]cc(-c4cccc5[nH]ccc45)c3c2)c1 [Example 71, N-(3-(3-(1H-indol-4-yl)-1H-pyrrolo[2,3-b]pyridin-5-yl)phenyl)acryl-amide] | 1 to 5 | –
C=CC(=O)Nc1cncc(-c2cnc3[nH]cc(-c4cn(C)c(=O)c5[nH]ccc45)c3c2)c1 [Example 73, N-(5-(3-(6-methyl-7-oxo-6,7-dihydro-1H-pyrrolo[2,3-c]pyridin-4-yl)-1H-pyrrolo[2,3-b]pyridin-5-yl)pyridin-3-yl)acrylamide] | > 5 | –
N#C/C(=C\c1cccc(-c2cnc3[nH]cc(-c4ccncn4)c3c2)c1)C(N)=O [Example 75, (E)-2-cyano-3-(3-(3-(pyrimidin-4-yl)-1H-pyrrolo[2,3-b]pyridin-5-yl)phenyl)acryl-amide] | > 5 | –
C=CC(=O)Nc1cccc(-c2cnc3[nH]cc(-c4cncc5[nH]ccc45)c3c2)c1 [Example 77, N-(3-(3-(1H-pyrrolo[2,3-c]pyridin-4-yl)-1H-pyrrolo[2,3-b]pyridin-5-yl)phenyl)acryl-amide] | > 5 | –
C=CC(=O)Nc1cccc(-c2cnc3[nH]cc(-c4cccc5occc45)c3c2)c1 [Example 82, N-(3-(3-(benzofuran-4-yl)-1H-pyrrolo[2,3-b]pyridin-5-yl)phenyl)acryl-amide] | > 5 | –
C=CC(=O)Nc1cccc(-c2cnc3[nH]cc(-c4cn(CC5CC5)c(=O)c5[nH]ccc45)c3c2)c1 [Example 88, N-(3-(3-(6-(cyclopropyl-methyl)-7-oxo-6,7-dihydro-1H-pyrrolo[2,3-c]pyridin-4-yl)-1H-pyrrolo[2,3-b]pyridin-5-yl)phenyl)acryl-amide] | 1 to 5 | –
